Measured values published in the CheMixHub viscosity set.

Assay: xn = mol fraction of the nth substance listed

CCCCCCCCCCCC + C1CCCCC1
Settings | viscosity [mPa·s]
297.78 K, 101.3 kPa, x1 = 0.4996 | 1.131
298.13 K, 101.3 kPa, x1 = 0.7489 | 1.247
298.15 K, 100 kPa, x2 = 0.2 | 1.263
298.15 K, 100 kPa, x2 = 0.4 | 1.171
298.15 K, 100 kPa, x2 = 0.6 | 1.071
298.15 K, 100 kPa, x2 = 0.8 | 0.979
298.15 K, 101.33 kPa, x1 = 0.0169 | 0.9114
298.15 K, 101.33 kPa, x2 = 0.1549 | 1.299
298.15 K, 101.33 kPa, x2 = 0.2886 | 1.237
298.15 K, 101.33 kPa, x2 = 0.3945 | 1.187
298.15 K, 101.33 kPa, x2 = 0.5031 | 1.138
298.15 K, 101.33 kPa, x2 = 0.5879 | 1.098
298.15 K, 101.33 kPa, x2 = 0.6636 | 1.048
298.15 K, 101.33 kPa, x2 = 0.7601 | 1.011
298.15 K, 101.33 kPa, x2 = 0.7983 | 0.9774
298.15 K, 101.33 kPa, x2 = 0.8536 | 0.9573
298.15 K, 101.33 kPa, x2 = 0.8943 | 0.9433
298.15 K, 101.33 kPa, x2 = 0.941 | 0.9223
298.31 K, 101.3 kPa, x1 = 0.5001 | 1.121
298.35 K, 101.3 kPa, x1 = 0.5001 | 1.116
298.38 K, 101.3 kPa, x1 = 0.2501 | 0.9923
298.43 K, 101.3 kPa, x1 = 0.2501 | 0.9883
298.43 K, 101.3 kPa, x1 = 0.4996 | 1.114
298.61 K, 101.3 kPa, x1 = 0.7489 | 1.232
298.62 K, 101.3 kPa, x1 = 0.7489 | 1.232
308.76 K, 101.3 kPa, x1 = 0.5001 | 0.9475
308.86 K, 101.3 kPa, x1 = 0.5001 | 0.948
323.15 K, 100 kPa, x2 = 0.2 | 0.8615
323.15 K, 100 kPa, x2 = 0.4 | 0.8075
323.15 K, 100 kPa, x2 = 0.6 | 0.7427
323.15 K, 100 kPa, x2 = 0.8 | 0.6736

CCCCCCCCCCO + C1CCCCC1
Settings | viscosity [mPa·s]
293.15 K, 100 kPa, x2 = 0.0822 | 12.17
293.15 K, 100 kPa, x2 = 0.1602 | 10.37
293.15 K, 100 kPa, x2 = 0.2397 | 8.74
293.15 K, 100 kPa, x2 = 0.3476 | 6.8
293.15 K, 100 kPa, x2 = 0.4402 | 5.45
293.15 K, 100 kPa, x2 = 0.5604 | 3.92
293.15 K, 100 kPa, x2 = 0.6506 | 2.95
293.15 K, 100 kPa, x2 = 0.7397 | 2.18
293.15 K, 100 kPa, x2 = 0.8508 | 1.48
293.15 K, 100 kPa, x2 = 0.94 | 1.1
303.15 K, 100 kPa, x2 = 0.0822 | 8.4
303.15 K, 100 kPa, x2 = 0.1602 | 7.28
303.15 K, 100 kPa, x2 = 0.2397 | 6.22
303.15 K, 100 kPa, x2 = 0.3476 | 4.96
303.15 K, 100 kPa, x2 = 0.4402 | 4.02
303.15 K, 100 kPa, x2 = 0.5604 | 2.97
303.15 K, 100 kPa, x2 = 0.6506 | 2.31
303.15 K, 100 kPa, x2 = 0.7397 | 1.77
303.15 K, 100 kPa, x2 = 0.8508 | 1.29
303.15 K, 100 kPa, x2 = 0.94 | 0.98
303.15 K, 101.33 kPa, x1 = 0.1009 | 1.08
303.15 K, 101.33 kPa, x1 = 0.1983 | 1.404
303.15 K, 101.33 kPa, x1 = 0.2985 | 1.829
303.15 K, 101.33 kPa, x1 = 0.3954 | 2.357
303.15 K, 101.33 kPa, x1 = 0.5 | 3.076
303.15 K, 101.33 kPa, x1 = 0.5845 | 3.781
303.15 K, 101.33 kPa, x1 = 0.6939 | 4.863
303.15 K, 101.33 kPa, x1 = 0.7949 | 6.023
303.15 K, 101.33 kPa, x1 = 0.8949 | 7.33
308 K, 101 kPa, x2 = 0.0801 | 6.912
308 K, 101 kPa, x2 = 0.2421 | 5.397
308 K, 101 kPa, x2 = 0.3455 | 4.468
308 K, 101 kPa, x2 = 0.4703 | 3.396
308 K, 101 kPa, x2 = 0.5762 | 2.579
308 K, 101 kPa, x2 = 0.6347 | 2.14
308 K, 101 kPa, x2 = 0.7203 | 1.702
308 K, 101 kPa, x2 = 0.8752 | 1.061
308 K, 101 kPa, x2 = 0.9408 | 0.86
313.15 K, 100 kPa, x2 = 0.0822 | 5.95
313.15 K, 100 kPa, x2 = 0.1602 | 5.22
313.15 K, 100 kPa, x2 = 0.2397 | 4.53
313.15 K, 100 kPa, x2 = 0.3476 | 3.69
313.15 K, 100 kPa, x2 = 0.4402 | 3.04
313.15 K, 100 kPa, x2 = 0.5604 | 2.29
313.15 K, 100 kPa, x2 = 0.6506 | 1.82
313.15 K, 100 kPa, x2 = 0.7397 | 1.43
313.15 K, 100 kPa, x2 = 0.8508 | 1.05
313.15 K, 100 kPa, x2 = 0.94 | 0.81
323.15 K, 100 kPa, x2 = 0.0822 | 4.35
323.15 K, 100 kPa, x2 = 0.1602 | 3.85
323.15 K, 100 kPa, x2 = 0.2397 | 3.36
323.15 K, 100 kPa, x2 = 0.3476 | 2.78
323.15 K, 100 kPa, x2 = 0.4402 | 2.35
323.15 K, 100 kPa, x2 = 0.5604 | 1.84
323.15 K, 100 kPa, x2 = 0.6506 | 1.51
323.15 K, 100 kPa, x2 = 0.7397 | 1.22
323.15 K, 100 kPa, x2 = 0.8508 | 0.91
323.15 K, 100 kPa, x2 = 0.94 | 0.71

Cc1ccccc1C + C1CCCCC1
viscosity [mPa·s], 101 kPa
Settings | x1 = 0.0998 | x1 = 0.2001 | x1 = 0.3 | x1 = 0.4 | x1 = 0.5 | x1 = 0.6 | x1 = 0.7001 | x1 = 0.7999 | x1 = 0.9
303.15 K | 0.7647 | 0.7241 | 0.6977 | 0.6817 | 0.6728 | 0.6706 | 0.6735 | 0.681 | 0.6924
308.15 K | 0.7083 | 0.6736 | 0.6511 | 0.6372 | 0.6306 | 0.6289 | 0.6317 | 0.639 | 0.65
313.15 K | 0.6583 | 0.6281 | 0.6097 | 0.5979 | 0.592 | 0.5919 | 0.5946 | 0.6015 | 0.6118
318.15 K | 0.6129 | 0.5876 | 0.572 | 0.5615 | 0.5568 | 0.5562 | 0.5614 | 0.5679 | 0.5772
323.15 K | 0.5722 | 0.5508 | 0.5372 | 0.5284 | 0.5247 | 0.5248 | 0.5293 | 0.5365 | 0.5452
